In patent US12171744B2, “Pharmaceutical combinations for the treatment of cancer” (Presage Biosciences, Inc., priority 2016, dated 2024):
One block for each compound: values may come before it.

How the values were obtained:
[1] = tested on: HCC1187 triple negative breast cancer (TNBC) xenograft model; experiment: CIVO microinjection, MCL-1 and CC3 staining; format: in vivo, mice; settings: for CC3 expression: marker of apoptosis; for expression of MCL-1: drug screen
Method: (§1) Mice were enrolled into CIVO drug studies when the tumor volume reached approximately 1000 mm^3. Microinjection studies were performed using the CIVO device as previously described (Klinghoffer et al, Science Translational Medicine 2015) The device was configured with 6 injection needles set for a 6 mm injection length and a total volume delivery of 3 μl. A fluorescent tracking marker (FTM) was added to each drug reservoir in vehicle for delivery along with each drug or drug combination. All micro-doses were equivalent to or lower than what would be allowed under FDA guidelines for Exploratory IND (Investigational New Drug) studies and by solubility of drug into vehicle. Total amounts of agents injected are tabulated below in Table 4.
A drug screen was performed to test multiple drugs simultaneously.
FIG. 11 depicts a similar experiment performed on the HCC1187 triple negative breast cancer (TNBC) xenograft model. […] Cells were then stained for CC3 expression (shown in red) as a marker of apoptosis.
FIGS. 20A-20D depicts the HCC1187 triple negative breast cancer (TNBC) xenograft model. Briefly, cells were treated with vehicle, voruciclib alone, ixazomib alone, or voruciclib and ixazomib in combination. Cells were then stained for CC3 expression (shown in red) as a marker of apoptosis.

[2] = tested on: tumor cells; experiment: Solid tumor section, CDK inhibitors in combination with ixazomib; set-up: species or system mice; settings: mouse, in vivo
Method: as §1

[3] = tested on: NudHL1 DLBCL xenografts; experiment: CIVO microinjection, CC3 staining after 6 hours; format: in vivo, mice; settings: treated for 6 hours
Method: as §1, with “All micro-doses were equivalent to or lower than what would be allowed under FDA guidelines for Exploratory IND (Investigational New Drug) studies and by solubility of drug into vehicle.” left out
FIGS. 9A-9D depict cells that were treated as above and stained for cleaved caspase-3 (CC3) as a marker of apoptosis (shown in red).
FIGS. 10A-10D depict cells that were treated as above and stained for cleaved caspase-3 (CC3) as a marker of apoptosis (shown in red).

[4] = tested on: HCC1187 triple negative breast cancer cells; experiment: Western blot of treated cells; format: cell-based; settings: for XBP1 expression: at 24 hours
Method: Cell lines shown in Table 1, adherent or suspension, were treated in 6-well dishes or T10 flasks respectively, seeded at one million per ml density prior to treatment in total volumes of 3-10 ml. All agents used for in vitro cell treatments were formulated in water/DMSO to achieve required concentrations (as stated in respective figure labels/legends) with DMSO concentrations not exceeding 0.01%. Drug sources are indicated in table under ‘CIVO microinjection studies’. Cells were harvested at experimental time points: 2, 6, or 24 hours post treatment as indicated in respective figures, first by washing cells twice in ice-cold PBS in 15 ml falcon tubes, centrifugation at 1000 rpm for 5 mins followed by lysis of the respective cell pellets as described in section below. Note: Drug resistant NUDHL1 Dox 1000 nM and Toledo Dox 1000 nM cell lines were generated at Presage by culturing parental lines in media with stepwise increments in Doxorubicin concentration over several passages. These cells were used to generate xenografts when resistance to 1 uM Dox was achieved.
Protein lysates were prepared by adding ice-cold 1×RIPA Buffer (from 10×, Millipore) with 1×-3× Halt protease and phosphatase inhibitor cocktail (100×, Pierce) to cell pellets, followed by pulse sonication (˜3-5 secs) three times. Lysates were cleared by centrifugation at 14K rpm for 15-20 mins and the supernatant (lysate) was collected for further analysis. To prepare lysates from cryopreserved xenograft tumor tissue, tissue was first homogenized using a hand-held tissue homogenizer (Cole Palmer) in above lysis buffer followed by pulse sonication and centrifugation as described above. Above steps were carried out under ice cold conditions. […] 20-25 micrograms of protein from each sample were subject to SDS-PAGE using BOLT 4-12% Bis-Tris gels (Thermofisher) and transferred to either 0.45 or 0.2 micron pore size membranes (as applicable based on protein molecular size), and either nitrocellulose (NC) or pvdf (Thermofisher) using manufacturer's protocol, blocked for one hour in 5% milk at room temperature, probed with primary antibodies (Table 2) at 4 deg C. overnight and corresponding HRP-conjugated secondary antibodies (Jackson Immunoresearch, 1:10,000-1:20,000 dilutions) for 1 hour at room temperature. Three PBS/0.01% Tween-20 washes (5-10 mins each) were carried out after each antibody incubation. ECL chemiluminescent substrate (Pierce or GE) and autoradiographic film (Thermofisher) was used for detection of protein signals.
1 ug of mRNA from each condition was used to generate cDNA using the High Capacity cDNA Reverse Transcription Kit (Applied Biosystems) and manufacturer's protocol. 100 ng cDNA was used to conduct a PCR assay to amplify XBP1 u or splice forms (Thermofisher PCR Supermix)—94 deg C. for 2 mins, (94 deg C. for 15 secs, 55 deg C. for 30 secs, 72 deg C. for 1 min)×30 cycles, 72 deg C. for 7 mins, hold at 4 deg C.

[5] = tested on: tissue section; experiment: Tissue section treated with bortezomib; format: in vivo; settings: some cells appear resistant
[6] = Body weight in HCC1187 TNBC mouse model; settings: in vivo
Method: Mice were enrolled for study when tumors reached an average volume of 150-200 mm^3. Tumor volume was calculated as V=length×width×height, all three dimensions measured using digital calipers along with body weight. Animals were removed from the study when—any one of the three measured dimensions of the tumor exceeding 2 cm, volume exceeding 2500 mm^3, ulceration or body weight loss greater than 20%.

[7] = biological target: ICK (Homo sapiens, UniProt Q9UPZ9); experiment: Kinase inhibition profile; format: biochemical
Sequence of ICK (Q9UPZ9 whole entry): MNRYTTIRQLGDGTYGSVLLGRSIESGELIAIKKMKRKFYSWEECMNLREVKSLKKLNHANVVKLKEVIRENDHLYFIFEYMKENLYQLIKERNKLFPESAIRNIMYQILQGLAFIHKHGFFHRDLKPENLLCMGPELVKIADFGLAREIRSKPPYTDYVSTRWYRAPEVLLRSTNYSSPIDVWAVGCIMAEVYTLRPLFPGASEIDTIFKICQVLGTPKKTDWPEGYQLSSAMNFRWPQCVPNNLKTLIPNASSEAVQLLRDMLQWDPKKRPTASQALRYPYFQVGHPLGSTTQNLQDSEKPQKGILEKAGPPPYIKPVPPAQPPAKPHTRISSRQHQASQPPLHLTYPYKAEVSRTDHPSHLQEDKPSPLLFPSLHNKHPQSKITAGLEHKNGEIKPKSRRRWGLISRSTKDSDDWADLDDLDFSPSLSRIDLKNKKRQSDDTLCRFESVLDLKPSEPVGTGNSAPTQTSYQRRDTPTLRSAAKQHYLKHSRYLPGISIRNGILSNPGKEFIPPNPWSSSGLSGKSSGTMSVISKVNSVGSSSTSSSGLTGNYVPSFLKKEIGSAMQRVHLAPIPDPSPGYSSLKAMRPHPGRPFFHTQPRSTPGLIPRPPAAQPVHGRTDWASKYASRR

[8] = biological target: MAK (Homo sapiens, UniProt P20794); experiment: Kinase inhibition profile
Sequence of MAK (P20794 whole entry): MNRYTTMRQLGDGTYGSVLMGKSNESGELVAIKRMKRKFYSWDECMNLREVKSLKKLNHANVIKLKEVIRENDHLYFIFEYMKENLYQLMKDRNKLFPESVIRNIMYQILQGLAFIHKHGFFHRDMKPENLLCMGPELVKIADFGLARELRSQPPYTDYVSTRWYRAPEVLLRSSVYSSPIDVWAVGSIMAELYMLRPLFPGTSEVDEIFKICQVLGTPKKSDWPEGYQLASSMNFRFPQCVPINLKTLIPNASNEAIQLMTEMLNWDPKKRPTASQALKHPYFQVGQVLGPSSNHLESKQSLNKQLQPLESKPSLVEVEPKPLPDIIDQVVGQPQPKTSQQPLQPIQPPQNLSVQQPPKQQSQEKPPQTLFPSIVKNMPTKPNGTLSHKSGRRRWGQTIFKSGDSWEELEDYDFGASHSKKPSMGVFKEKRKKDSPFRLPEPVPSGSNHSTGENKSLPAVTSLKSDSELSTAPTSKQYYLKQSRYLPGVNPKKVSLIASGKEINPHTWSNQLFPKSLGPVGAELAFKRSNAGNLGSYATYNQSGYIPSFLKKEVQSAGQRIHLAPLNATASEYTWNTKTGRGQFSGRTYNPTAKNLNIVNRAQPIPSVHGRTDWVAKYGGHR

Compound: CC(C)C[C@H](NC(=O)CNC(=O)c1cc(Cl)ccc1Cl)B(O)O [ixazomib]
- CC3 expression [1]: little to no increase
- synergistic effect on apoptosis of tumor cells [2]: did not exhibit the synergistic effect

Compound: CC(C)C[C@H](NC(=O)[C@H](Cc1ccccc1)NC(=O)c1cnccn1)B(O)O [bortezomib]
- expression of MCL-1 [1]: increase
- expression of MCL-1 ([1]; listed as Bortezomib): markedly increased
- CC3 expression [1]: little to no increase
- CC3 expression [3]: little to no increase
- MCL-1 protein expression ([4]; Western blot, compared to untreated sample): increased
- XBP1 expression [4]: strongly induced
- apoptosis [5]: induces apoptosis in some cells
- body weight of mice [6]: unaffected

Compound: C[C@@]12OC(=O)[C@]1([C@@H](O)[C@@H]1C=CCCC1)NC(=O)[C@@H]2CCCl [marizomib]
- CC3 expression [3]: little to no increase

- inhibition of ICK [7]: potent inhibitor
- inhibition of MAK [8]: potent inhibitor
Compound: CN1CC[C@H](c2c(O)cc(O)c3c(=O)cc(-c4ccccc4Cl)oc23)[C@H](O)C1 [flavopiradol, reference compound]

Compound: tunicamycin [reference compound]
- X-box binding protein 1 (XBP1) expression ([4]; at 6 hours): strongly induced
- XBP1 expression [4]: strongly induced
